In ChEMBL document CHEMBL4190255, “Novel celastrol derivatives with improved selectivity and enhanced antitumour activity: Design, synthesis and biological evaluation” (Eur J Med Chem, 2017):
Values belong to the compound of their own block, whether it stands above or below them. Calls of active or inactive are those of the source. No cut-off for these calls is given here.

How the values were obtained:
A549 [1] = assay: Antiproliferative activity against human A549 cells after 72 hrs by MTT assay; format: functional, cell-based; details: A549, 72 h
MIA PaCa-2 = assay: Antiproliferative activity against human MIAPaCa2 cells after 72 hrs by MTT assay; format: functional, cell-based; details: MIA PaCa-2, 72 h
SK-OV-3 [2] = assay: Induction of apoptosis in human SKOV3 cells at IC50 concentration after 24 hrs by Annexin V-FITC/propidium iodide double staining based flow cytometry; format: functional, cell-based
BJ = assay: Cytotoxicity against human BJ cells assessed as reduction in cell viability after 72 hrs by MTT assay; format: cell-based
SK-OV-3 [3] = assay: Antiproliferative activity against human SKOV3 cells after 72 hrs by MTT assay; format: functional, cell-based; details: SK-OV-3, 72 h
SK-BR-3 = assay: Antiproliferative activity against human SKBR3 cells after 72 hrs by MTT assay; format: functional, cell-based; details: SK-BR-3, 72 h
MDA-MB-231 = assay: Antiproliferative activity against human MDA-MB-231 cells after 72 hrs by MTT assay; format: functional, cell-based; details: MDA-MB-231, 72 h
[4] = Selectivity index, ratio of IC50 for human BJ cells to IC50 for human A549 cells; format: toxicity; details: BJ cells versus A549 cells, read-out: Ratio IC50
[5] = Selectivity index, ratio of IC50 for human BJ cells to IC50 for human MIAPaCa2 cells; format: toxicity; details: BJ cells versus MIAPaCa2 cells, read-out: Ratio IC50
[6] = Selectivity index, ratio of IC50 for human BJ cells to IC50 for human SKOV3 cells; format: toxicity; details: BJ cells versus SKOV3 cells, read-out: Ratio IC50
SK-OV-3 [7] = assay: Cell cycle arrest in human SKOV3 cells assessed as accumulation at G0/G1 phase at IC50 concentration after 24 to 72 hrs by propidium iodide-based flow cytometry; format: functional
SK-OV-3 [8] = assay: Cell cycle arrest in human SKOV3 cells assessed as accumulation at S phase at IC50 concentration after 24 to 72 hrs by propidium iodide-based flow cytometry; format: functional
SK-OV-3 [9] = assay: Cell cycle arrest in human SKOV3 cells assessed as accumulation at G2/M phase at IC50 concentration after 24 to 72 hrs by propidium iodide-based flow cytometry; format: functional
SK-OV-3 [10] = assay: Induction of apoptosis in human SKOV3 cells assessed as early apoptotic cells at IC50 concentration after 48 hrs by Annexin V-FITC/propidium iodide double staining based flow cytometry (reference value: 4.5%); format: functional
SK-OV-3 [11] = assay: Induction of apoptosis in human SKOV3 cells assessed as early apoptotic cells at IC50 concentration after 72 hrs by Annexin V-FITC/propidium iodide double staining based flow cytometry (reference value: 4.7%); format: functional
SK-OV-3 [12] = assay: Induction of apoptosis in human SKOV3 cells at IC50 concentration by Annexin V-FITC/propidium iodide double staining based flow cytometry; format: functional, cell-based; details: TDE = time-dependent effect
SK-OV-3 [13] = assay: Induction of apoptosis in human SKOV3 cells assessed as cell shrinkage at IC50 concentration after 48 hrs by Hoechst 33342 staining-based fluorescence microscopy; format: functional
SK-OV-3 [14] = assay: Induction of apoptosis in human SKOV3 cells assessed as chromatin condensation at IC50 concentration after 48 hrs by Hoechst 33342 staining-based fluorescence microscopy; format: functional, cell-based
SK-OV-3 [15] = assay: Induction of apoptosis in human SKOV3 cells assessed as formation of apoptotic bodies at IC50 concentration after 48 hrs by Hoechst 33342 staining-based fluorescence microscopy; format: functional, cell-based
SK-OV-3 [16] = assay: Induction of apoptosis in human SKOV3 cells assessed as reduction in cell density at IC50 concentration after 48 hrs by Hoechst 33342 staining-based fluorescence microscopy; format: functional
SK-OV-3 [17] = assay: Induction of apoptosis in human SKOV3 assessed as decrease in procaspase-8 levels at IC50 concentration after 72 hrs by Western blot analysis; format: functional, cell-based
SK-OV-3 [18] = assay: Induction of apoptosis in human SKOV3 assessed as increase in cleaved caspase-8 levels at IC50 concentration after 72 hrs by Western blot analysis; format: functional, cell-based
SK-OV-3 [19] = assay: Induction of apoptosis in human SKOV3 assessed as decrease in procaspase-3 levels at IC50 concentration after 72 hrs by Western blot analysis; format: functional, cell-based
SK-OV-3 [20] = assay: Induction of apoptosis in human SKOV3 assessed as increase in cleaved PARP levels at IC50 concentration after 72 hrs by Western blot analysis; format: functional, cell-based
SK-OV-3 [21] = assay: Induction of apoptosis in human SKOV3 assessed as effect on bid levels at IC50 concentration after 72 hrs by Western blot analysis; format: functional, cell-based
SK-OV-3 [22] = assay: Induction of apoptosis in human SKOV3 assessed as effect on t-bid levels at IC50 concentration after 72 hrs by Western blot analysis; format: functional, cell-based
SK-OV-3 [23] = assay: Induction of apoptosis in human SKOV3 assessed as effect on bcl2 levels at IC50 concentration after 72 hrs by Western blot analysis; format: functional, cell-based
SK-OV-3 [24] = assay: Induction of apoptosis in human SKOV3 assessed as effect on bax levels at IC50 concentration after 72 hrs by Western blot analysis; format: functional, cell-based
SK-OV-3 [25] = assay: Induction of apoptosis in human SKOV3 assessed as effect on caspase-9 levels at IC50 concentration after 72 hrs by Western blot analysis; format: functional, cell-based
SK-OV-3 [26] = assay: Induction of apoptosis in human SKOV3 cells assessed as reduction in mutant p53 levels at IC50 concentration after 72 hrs by Western blot analysis; format: functional, cell-based
A549 [27] = assay: Effect on wild-type p53 expression in human A549 cells at IC50 concentration after 72 hrs by Western blot analysis; format: ADME, cell-based; details: a549, 72 h
[28] = target: T1, Heat shock protein HSP90 (Homo sapiens) (UniProt P07900+P08238); assay: Inhibition of HSP90 protein levels in human SKOV3 cells at IC50 concentration after 72 hrs by Western blot analysis; format: cell-based
[29] = target: T1, Heat shock protein HSP90 (Homo sapiens); assay: Inhibition of HSP90 in human SKOV3 cells assessed as decrease in phosphorylated Akt levels at IC50 concentration after 72 hrs by Western blot analysis; format: cell-based
SK-OV-3 [30] = assay: Effect on total Akt levels in human SKOV3 cells at IC50 concentration after 72 hrs by Western blot analysis; format: ADME, cell-based; details: sk-ov-3, 72 h
[31] = target: T1, Heat shock protein HSP90 (Homo sapiens); assay: Inhibition of HSP90 in human SKOV3 cells assessed as decrease in phosphorylated mTOR levels at IC50 concentration after 72 hrs by Western blot analysis; format: cell-based
SK-OV-3 [32] = assay: Effect on total mTOR levels in human SKOV3 cells at IC50 concentration after 72 hrs by Western blot analysis; format: ADME, cell-based; details: sk-ov-3, 72 h
SK-OV-3 [33] = assay: Potentiation of cisplatin-induced cytotoxicity in human SKOV3 cells assessed as combination index by measuring reduction in cell viability at 0.15 uM after 72 hrs by MTT assay; format: functional
SK-OV-3 [34] = assay: Potentiation of cisplatin-induced cytotoxicity in human SKOV3 cells assessed as combination index by measuring reduction in cell viability at 0.3 uM after 72 hrs by MTT assay; format: functional
SK-OV-3 [35] = assay: Potentiation of cisplatin-induced cytotoxicity in human SKOV3 cells assessed as combination index by measuring reduction in cell viability at 0.6 uM after 72 hrs by MTT assay; format: functional
SK-OV-3 [36] = assay: Potentiation of cisplatin-induced cytotoxicity in human SKOV3 cells assessed as combination index by measuring reduction in cell viability at 1.2 uM after 72 hrs by MTT assay; format: functional
SK-OV-3 [37] = assay: Potentiation of cisplatin-induced cytotoxicity in human SKOV3 cells assessed as combination index by measuring reduction in cell viability at 2.4 uM after 72 hrs by MTT assay; format: functional
SK-OV-3 [38] = assay: Potentiation of cisplatin-induced cytotoxicity in human SKOV3 cells assessed as combination index by measuring reduction in cell viability at 4.8 uM after 72 hrs by MTT assay; format: functional

IC50 (A549 [1]): 1.66 µM
IC50 (MIA PaCa-2): 0.41 µM
Structure (SMILES): CC1=C(O)C(=O)C=C2C1=CC=C1[C@@]2(C)CC[C@@]2(C)[C@@H]3C[C@](C)(NC(=O)NCCc4ccccc4)CC[C@]3(C)CC[C@]12C

IC50 (A549 [1]): > 15 µM
IC50 (MIA PaCa-2): > 5 µM
Structure (SMILES): CC(=O)Oc1cc2c(c(C)c1OC(C)=O)C(=O)C=C1[C@@]2(C)CC[C@@]2(C)[C@@H]3C[C@](C)(N=C=O)CC[C@]3(C)CC[C@]12C

IC50 (A549 [1]): 2.48 µM
IC50 (MIA PaCa-2): 0.63 µM
Structure (SMILES): CC1=C(O)C(=O)C=C2C1=CC=C1[C@@]2(C)CC[C@@]2(C)[C@@H]3C[C@](C)(NC(N)=O)CC[C@]3(C)CC[C@]12C

IC50 (A549 [1]): 2.45 µM
IC50 (MIA PaCa-2): 0.45 µM
Structure (SMILES): CC1=C(O)C(=O)C=C2C1=CC=C1[C@@]2(C)CC[C@@]2(C)[C@@H]3C[C@](C)(NC(=O)NCc4ccc(C)cc4)CC[C@]3(C)CC[C@]12C

IC50 (A549 [1]): 2.89 µM
IC50 (MIA PaCa-2): 1.41 µM
Structure (SMILES): CC(=O)Oc1cc2c(c(C)c1OC(C)=O)CC=C1[C@@]2(C)CC[C@@]2(C)[C@@H]3C[C@](C)(N=C=O)CC[C@]3(C)CC[C@]12C

IC50 (A549 [1]): 1.27 µM
IC50 (MIA PaCa-2): 0.35 µM
IC50 (SK-OV-3 [3]): 0.56 µM
IC50 (SK-BR-3): 0.78 µM
IC50 (MDA-MB-231): 1.15 µM
inhibition [28]: Active
inhibition [29]: Active
inhibition [31]: Active
Structure (SMILES): CC1=C(O)C(=O)C=C2C1=CC=C1[C@@]2(C)CC[C@@]2(C)[C@@H]3C[C@](C)(NC(=O)NCCc4cccc(Cl)c4)CC[C@]3(C)CC[C@]12C
Activity (SK-OV-3 [2]): inactive
IC50 (BJ): 3.29 µM
selectivity ratio [4]: 2.59
selectivity ratio [5]: 9.31
selectivity ratio [6]: 5.81
Activity (SK-OV-3 [7]): inactive
Activity (SK-OV-3 [8]): inactive
Activity (SK-OV-3 [9]): inactive
Activity (SK-OV-3 [10]): 15%
Activity (SK-OV-3 [11]): 31.8%
Activity (SK-OV-3 [12]): Tde
Activity (SK-OV-3 [13]): Active
Activity (SK-OV-3 [14]): Active
Activity (SK-OV-3 [15]): Active
Activity (SK-OV-3 [16]): Active
Activity (SK-OV-3 [17]): Active
Activity (SK-OV-3 [18]): Active
Activity (SK-OV-3 [19]): Active
Activity (SK-OV-3 [20]): Active
Activity (SK-OV-3 [21]): inactive
Activity (SK-OV-3 [22]): inactive
Activity (SK-OV-3 [23]): inactive
Activity (SK-OV-3 [24]): inactive
Activity (SK-OV-3 [25]): inactive
Activity (SK-OV-3 [26]): Active
Activity (A549 [27]): Non-Toxic
Activity (SK-OV-3 [30]): Non-Toxic
Activity (SK-OV-3 [32]): Non-Toxic
CI (SK-OV-3 [33]): 1.047
CI (SK-OV-3 [34]): 1.374
CI (SK-OV-3 [35]): 1.44
CI (SK-OV-3 [36]): 0.6855
CI (SK-OV-3 [37]): 0.575
CI (SK-OV-3 [38]): 0.7102

Structure (SMILES): Cc1c(O)c(O)cc2c1C(=O)C=C1[C@@]2(C)CC[C@@]2(C)[C@@H]3C[C@](C)(C(=O)O)CC[C@]3(C)CC[C@]12C
IC50 (A549 [1]): > 15 µM
IC50 (MIA PaCa-2): > 5 µM

Structure (SMILES): CNC(=O)N[C@]1(C)CC[C@]2(C)CC[C@]3(C)C4=CC(=O)c5c(cc(O)c(O)c5C)[C@]4(C)CC[C@@]3(C)[C@@H]2C1
IC50 (A549 [1]): > 15 µM
IC50 (MIA PaCa-2): > 5 µM

IC50 (A549 [1]): 4.34 µM
IC50 (MIA PaCa-2): 0.56 µM
Structure (SMILES): CC1=C(O)C(=O)C=C2C1=CC=C1[C@@]2(C)CC[C@@]2(C)[C@@H]3C[C@](C)(NC(=O)NCc4ccc(F)cc4)CC[C@]3(C)CC[C@]12C

IC50 (A549 [1]): 2.27 µM
IC50 (MIA PaCa-2): 0.4 µM
Structure (SMILES): CC1=C(O)C(=O)C=C2C1=CC=C1[C@@]2(C)CC[C@@]2(C)[C@@H]3C[C@](C)(NC(=O)Nc4ccccc4)CC[C@]3(C)CC[C@]12C
